Data reported in patent US20070128727A1, “Methods for differentiation of embryonic stem cells” (priority 2005, published 2007).

Legend:
Assay type in all cases: cell-based, mouse
[1] = system: MESC; experiment: ATRA effects on growth of MESC (Alamar blue cell proliferation); details: ATRA 10^-6 M for three days, vs 0.1% DMSO vehicle, 500 cells/well
Description: (§1) Mouse embryonic stem (ES) cells were used as the source of embryoid bodies (EBs). E14Tg2A cells were trypsinized and made into suspension in Glasgow Minimum essential medium containing 10% fetal bovine serum (growth medium). Cells were counted under a microscope using a haemocytometer, and were diluted to a concentration on 10^5 cells/mi. During cell passages, 1000 U/ml of leukemia inhibitory factor (LIF) was added to prevent differentiation.
FIG. 1. ATRA effects on growth of MESC. Cells were plated at 500/well in a 96-well culture plate. Starting on day 1, they were treated with ATRA (10^−6 M) for three days with replacement of fresh media each day. Control samples were treated with 0.1% DMSO (vehicle). At each indicated day, Alamar blue (10 μl/0.1 ml), an indicator for cell proliferation detection, was added to each well and the fluorescence generated was read after 4 hours.

[2] = system: Differentiated MESC; experiment: Gene expression profile by Taqman real time PCR in differentiated MESC
Description: Two days afterwards, the droplets containing EBs were collected by adding medium to the cover and equally distributed onto 2 gelatinized (precoated with 0.1% gelatin) 100 mm petri dishes. The attached EBs were treated with 10^−6 M ATRA (all-trans retinoic acid) for 3 days to initiate differentiation. Medium was then changed into growth medium with 10^−7 M insulin and 2×10^−9 M of triiodothyronine (T3) (induction medium) to continue adipocyte differentiation. Medium was changed every two days. At day 10, further stimulation of induction was made by the addition of an induction cocktail [0.5 mM isobutylmethylxanthine (IBMX), 0.1 μM dexamethasone (DEX) and 1 μM of insulin]. After treating the cells for 8 days, cells were removed from the dish, counted with a hemocytometer and plated onto gelatinized 6-well culture plates at 10^4/cm^2. Cells with minute lipid droplets (adipocytes) appeared in two days. The number of the adipocytes and the size of droplets increased over time and reached a plateau at day 10.
ATRA treated cultures and vehicle treated control cultures underwent the same differentiation process as described in the Methods. […] Total RNA was extracted, and reverse-transcribed. The relative mass of specific RNA was calculated by the comparative cycle of threshold detection method according to the manufacturer's instruction. Two independent experiments were performed using different RNA preparations from the cultures; each run of PCR was conducted in triplicate. The expression of adipocyte markers was increased while some of the osteoblast markers were decreased.

[3] = system: embryoid bodies from E14Tg2A embryonic stem cells; experiment: Differentiation of adipocytes from embryoid bodies (oil-red-O staining, morphology); details: ATRA treated vs vehicle treated cultures, same differentiation process
Description: as §1
To make EBs, cell suspensions after trypsinization were made into hanging droplets (20 μl) onto the cover of a bacteriological petri dish. The bottom of the dish was filled with PBS.
20 μl droplets of cells in suspension were pipetted onto the cover of a 100 mm bacteriological petri dish. […]
Two days afterwards, the droplets containing EBs were collected by adding medium to the cover and equally distributed onto 2 gelatinized (precoated with 0.1% gelatin) 100 mm petri dishes. […] After treating the cells for 8 days, cells were removed from the dish, counted with a hemocytometer and plated onto gelatinized 6-well culture plates at 10^4/cm^2. […]
ATRA treated cultures and vehicle treated control cultures underwent the same differentiation process as described in the Methods. […] The relative mass of specific RNA was calculated by the comparative cycle of threshold detection method according to the manufacturer's instruction. […]

[4] = system: embryoid body cultures from E14Tg2A cells; experiment: Osteoblast differentiation, real time RT-PCR of osteoblast marker mRNA; details: day 31 cultures
Description: Two days afterwards, the droplets containing EBs were collected by adding medium to the cover and equally distributed onto 2 gelatinized (precoated with 0.1% gelatin) 100 mm petri dishes. Without treating with ATRA, the attached EBs were incubated in the induction medium containing 10^−7 M insulin and 2×10^−9 M T3 for 5 days.
After that, 0.3 mM of ascorbic acid phosphate (magnesium salt, Waco Chemicals, Dallas, Tex.) and 10 mM of β-glycerophosphate (Sigma-Aldrich Chemicals, St. Louis, Mo.) were added to the induction medium for an additional 9 days. At day 14, cultures were trypsinized to remove the cells and plated on to gelatin-coated 6-well culture plates at a density of 10^4 cells/cm^2. Three days after, at day 17, DEX at 10^−8 M was added to some of the wells to further induce osteoblast differentiation. Medium was replaced every 2 days throughout the culture period.
The cultures were terminated 2 weeks after at day 31 and stained for alkaline phosphatase (ALP) activity using a kit from Sigma following manufacturer's procedure (procedure No. 85). In this procedure, cells containing ALP activity, an osteoblast maker, appear in blue color. […]

[5] = system: fully differentiated and induced cells (adipocytes from MESC); experiment: Hormone induced lipolysis (glycerol release into medium); details: 4 hr in glucose-free DMEM; isoproterenol increasing concentrations; dibutyryl-cAMP 10^-3 M; forskolin 4×10^-5 M
Description: FIG. 4. Hormone induced lipolysis. Fully differentiated and induced cells were treated with increasing concentrations of isoproterenol in glucose-free DMEM containing 30 mg/ml of fatty acid free albumin and adenosine deaminase (1 U/ml) for 4 hr. The control samples were incubated with 10^−5 M N-(2-phenylisopropyl)-adenosine to replace the endogenous adenosine. The amount of glycerol in the medium was measured using a calorimetric kit. Differentiated and induced cells incubated with isoproterenol in 35 mm wells. B. Differentiated cells with or without induction cultures were incubated with 10^−3 M dibutyryl-cAMP or 4×10^−5 M forskolin in 60 mm diameter culture plates.

What does the source list for `CC1=C(/C=C/C(C)=C/C=C/C(C)=C/C(=O)O)C(C)(C)CCC1` [ATRA, all-trans retinoic acid]?
cell number (Alamar blue fluorescence) [1]: significant lowering of the cell number was only seen at day 3; ALBP expression, Fold Change (ATRA/Control) ([2]; adipocyte marker): +53.2 ± 0.09 fold; HSL expression, Fold Change (ATRA/Control) ([2]; adipocyte marker): +2.39 ± 0.17 fold; PPAR-γ expression, Fold Change (ATRA/Control) ([2]; adipocyte marker): +1.72 ± 0.42 fold; ALP expression, Fold Change (ATRA/Control) ([2]; osteoblast marker): −2.54 ± 0.03 fold; Collagen type 1α expression, Fold Change (ATRA/Control) ([2]; osteoblast marker): +6.27 ± 0.26 fold; Osteocalcin expression, Fold Change (ATRA/Control) ([2]; osteoblast marker): −5.28 ± 0.05 fold; Osteonectin expression, Fold Change (ATRA/Control) ([2]; osteoblast marker): +2.02 ± 0.25 fold; formation of adipocytes at end of culture [3]: formed numerous fully differentiated adipocytes

For `C[C@@H]1C[C@H]2[C@@H]3CCC4=CC(=O)C=C[C@]4(C)[C@@]3(F)[C@@H](O)C[C@]2(C)[C@@]1(O)C(=O)CO` [DEX, dexamethasone], which “increase in expression of ALP mRNA” value [4] is on record?
The value was ~2 fold.

And the “increase in expression of osteocalcin mRNA” value [4]?
Its value is 8 fold.

With `CCCC(=O)Nc1ncnc2c1ncn2[C@@H]1O[C@@H]2COP(=O)(O)O[C@H]2[C@H]1OC(=O)CCC` [dibutyryl-cAMP] as the compound, how does the “glycerol release (lipolysis)” value [5] read?
Its value is “dose-dependent increase of glycerol release”.

`CC(C)NCC(O)c1ccc(O)c(O)c1` (stereo not shown) [isoproterenol] was tested. Which “glycerol release (lipolysis)” value [5] did it give?
Its value is “dose-dependent increase of glycerol release”.
